Test results: PMC6872687, “Potential for imaging the high-affinity state of the 5-HT1B receptor: a comparison of three PET radioligands with differing intrinsic activity” (EJNMMI Research, 2019)
Where “and” joins values, the source holds several entries; their conditions need not be identical. Equal values may be shown once. Read-outs that look alike come from different tables or passages of the source.

How the values were obtained:
[1] = logD (in vitro data, Fig. 1); format: physicochemical; conditions: data provided by AstraZeneca
5-HT1B receptor [2] = molecular target: T1, 5-HT1B receptor (Homo sapiens, UniProt P28222); test: GTPγ35S binding assay for EC50 and intrinsic activity (agonist/antagonist efficacy); format: biochemical; conditions: data provided by AstraZeneca; for Agonist effect / Antagonist effect: measured at 10 μM
Experimental: EC50 values and intrinsic activity (antagonist/agonist efficacy) were measured by comparing 5-HT1B receptor ability to bind GTPγ^35S when stimulated with 5-HT. The agonist/antagonist effect (percentage) was measured at 10 μM and EC50 in a range from 10 μM to 170 pM. EC50 was determined as the concentration at half the maximum of the dose-response curve.

5-HT1B receptor [3] = test: PET displacement by fenfluramine-induced endogenous 5-HT release in NHP brain; format: in vivo, cynomolgus monkey; conditions: for Specific binding (45-123 min) in the occipital cortex: baseline PET
Experimental: (§1) Three female cynomolgus monkeys were supplied by Astrid Fagraeus Laboratory at the Karolinska Institutet (Solna, Sweden). Anesthesia was initiated via intramuscular injection of ketamine hydrochloride (ca. 10 mg/kg) and after, intubation was maintained by the administration of a mixture of sevoflurane, oxygen, and medical air.
(§2) The NHPs were observed continuously during the days of PET measurements. Body temperature was maintained by Bair Hugger-Model 505 (Arizant Healthcare Inc., MN) and monitored with an esophageal thermometer. Heart rate, blood pressure, respiratory rate, and oxygen saturation were continuously monitored throughout the experiments. Fluid balance was maintained by a continuous infusion of saline. The NHP head was fixed in position throughout PET data acquisition as described previously. PET measurements were conducted using a high-resolution research tomograph (Siemens). Radioactivity in the brain was measured continuously for 123 min after radioligand injection according to a preprogrammed series of 34 frames.
PET measurements using fenfluramine to evaluate the sensitivity of [^11C]1 and [^11C]3 towards endogenous 5-HT release followed an identical procedure for two NHPs (weight 6.8 and 7.0 kg). Each NHP was used in a baseline and a displacement PET measurement with intravenous infusion of fenfluramine over 5 min starting 15 min after injection of the same radioligand as used in the baseline measurement. The dose of fenfluramine was 1 mg/kg (i.v.) for both radioligands and 5 mg/kg (i.v.) for [^11C]3 only. After an unexpected complication, the study was limited to be concluded only at the lower dose level. In summary, results for [^11C]1 were acquired from this study (1 mg/kg of fenfluramine) and from Lindberg et al. (5.0 mg/kg of fenfluramine), [15] results for [^11C]2 were exclusively acquired from Finnema et al., and all results for [^11C]3 were acquired from this study. The experimental procedure in this study was designed to replicate the procedure described by Finnema et al..
(§3) Average PET images were manually co-registered to a T1-weighted brain magnetic resonance (MR) image previously obtained for each monkey. The co-registration parameters were applied to the dynamic PET data. Regions of interest (ROI) were delineated manually for the whole brain, occipital cortex, globus pallidus, caudate nucleus, putamen, ventral striatum (nucleus accumbens), cerebellum, frontal cortex, midbrain, thalamus, and hippocampus. Regional radioactivity was expressed as standardized uptake value (SUV), which was calculated as uptake (becquerels/milliliter)/injected radioactivity (becquerels) × body weight (grams).
(§4) The cerebellum was used as a reference region because this region has negligible density of 5-HT1B receptors. Specific binding to the 5-HT1B receptor was defined as the difference between the total radioactivity concentration in the target brain region and that in the cerebellum, each using the area under the time-radioactivity curve for the scan interval 45–123 min. The binding potential (BPND) was defined as the ratio of specific binding to the radioactivity concentration in the cerebellum, calculated by simplified reference tissue model (SRTM).

5-HT1B receptor [4] = test: PET baseline and AR-A000002 pretreatment measurement of specific binding in NHP brain; format: in vivo, cynomolgus monkey
Experimental: as §1, §2
In an initial PET study to evaluate the specific binding of [^11C]3, one NHP (weight 6.9 kg) was used in a baseline measurement. This monkey was also used in a pretreatment paradigm in which the 5-HT1B antagonist AR-A000002 (AZ10419427; 2.0 mg/kg) was intravenously infused over 6 min starting at 30 min before radioligand injection.
as §3, §4

5-HT1B receptor [5] = molecular target: T1, 5-HT1B receptor; test: 5-HT1B receptor affinity (in vitro data, Fig. 1); format: binding; conditions: data provided by AstraZeneca
5-HT1B receptor [6] = test system: 5-HT1B receptor; set-up: method as in PMID 20222157; conditions: baseline PET; results for [11C]2 acquired from Finnema et al.; cited from earlier work
[7] = fenfluramine 1.0 mg/kg i.v. 15 min after radioligand, 45-123 min, individual monkeys
[8] = fenfluramine 1.0 mg/kg i.v., individual monkeys
[9] = fenfluramine 5.0 mg/kg, 45-123 min
[10] = AR-A000002 2.0 mg/kg i.v. pretreatment vs baseline
[11] = after pretreatment with AR-A000002 2.0 mg/kg i.v.
[12] = fenfluramine 1.0 mg/kg i.v., 45-123 min

T1 sequence (P28222 whole entry): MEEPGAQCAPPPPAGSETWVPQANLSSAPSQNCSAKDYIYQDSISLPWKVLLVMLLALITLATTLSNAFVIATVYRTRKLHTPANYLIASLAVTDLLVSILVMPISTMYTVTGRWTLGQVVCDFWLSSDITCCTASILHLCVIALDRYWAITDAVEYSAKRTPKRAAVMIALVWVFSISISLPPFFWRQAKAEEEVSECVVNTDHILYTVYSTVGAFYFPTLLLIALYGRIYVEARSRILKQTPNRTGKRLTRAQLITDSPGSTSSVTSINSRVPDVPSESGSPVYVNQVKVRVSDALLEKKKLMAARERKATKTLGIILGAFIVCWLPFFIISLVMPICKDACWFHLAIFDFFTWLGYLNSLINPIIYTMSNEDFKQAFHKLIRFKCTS

| SMILES | logD [1] | Agonist effect (5-HT1B receptor [2]) [%] | Antagonist effect (5-HT1B receptor [2]) [%] | Specific binding (45-123 min) in the occipital cortex (5-HT1B receptor [3]) | Decrease in specific binding, occipital cortex (5-HT1B receptor [3]; [7]) | Displacement (decrease in specific binding), globus pallidus (5-HT1B receptor [3]; [8]) | Ki (5-HT1B receptor [5]) [nM] | also measured |
| --- | --- | --- | --- | --- | --- | --- | --- | --- |
| [11CH3]N1CCN(c2cccc3c2O[C@H](C(=O)Nc2ccc(N4CCOCC4)cc2)CC3)CC1 [[^11C]3] | 1.5 | 77.1 | 18 | 0.9 | 16% and 27% | 4% and 11% | 0.6 | EC50 (5-HT1B receptor [2]; range 10 μM to 170 pM): 0.97 nM; Decrease in specific binding, occipital cortex (5-HT1B receptor [3]; fenfluramine 5.0 mg/kg i.v. 15 min after radioligand, 45-123 min, individual monkeys): 61% and 62%; Reduction in specific binding, frontal cortex (5-HT1B receptor [3]; [9]): 68%; Reduction in specific binding, hippocampus (5-HT1B receptor [3]; [9]): 34%; Displacement, globus pallidus (5-HT1B receptor [3]; fenfluramine 5.0 mg/kg, individual monkeys): 35% and 49%; Reduction of BPND, globus pallidus (5-HT1B receptor [4]; [10]): 52%; Reduction of BPND, occipital cortex (5-HT1B receptor [4]; [10]): 90%; BPND, globus pallidus (5-HT1B receptor [4]; [11]): 0.23; BPND, occipital cortex (5-HT1B receptor [4]; [11]): 0.07; BPND (SRTM), globus pallidus (5-HT1B receptor [4]; baseline): 0.48; BPND (SRTM), occipital cortex (5-HT1B receptor [4]; baseline): 0.7; Maximum radioactivity in the whole brain (5-HT1B receptor [4]; baseline PET, i.v., one monkey): 2.5 SUV; Time of maximum whole brain radioactivity (5-HT1B receptor [4]; baseline PET, i.v., one monkey): 10 min |
| [11CH3]N1CCN(c2cc(F)cc3c(=O)cc(C(=O)Nc4ccc(N5CCOCC5)c(F)c4)oc23)CC1 [[^11C]1] | 2.3 |  | 190 | 3.2 | 19% | 3% and 9% | 0.13 | Reduction in specific binding, midbrain (5-HT1B receptor [3]; [12]): 2%; Reduction in specific binding, thalamus (5-HT1B receptor [3]; [12]): 33% |
| Cc1ccc(N2CCN([11CH3])CC2)c2oc(C(=O)Nc3ccc(N4CCOCC4)cc3)cc(=O)c12 [[^11C]2] | 1.3 | 53.2 | 48 |  |  |  | 0.4 | Specific binding (45-123 min) in the occipital cortex (5-HT1B receptor [6]): 1.9 |
